Measured values from PMC5974751, “NKp44-Derived Peptide Binds Proliferating Cell Nuclear Antigen and Mediates Tumor Cell Death” (Frontiers in Immunology, 2018).
Each block holds one molecule with its values, some of them ahead of it. Ends that are not written are not given here. * marks the point of attachment. Biotin = O=C1N[C@H]2[C@H](CS[C@H]2CCCCC(=O)*)N1

What was measured:
MDA-MB-231 cells = assay: Flow cytometry based cell death assay (PI), MDA-MB-231; set-up: species or system human; conditions: MDA-MB-231, PI flow cytometry, 0–8 µM, 24 h
Method: (§1) Peptides were diluted before the incubation with the target cells with free DMEM culture medium to 0–16 µM according to peptide molecular weight. For adding the peptides, 0.5 ml was removed from each well, and 0.5 ml of diluted peptides was added to a final volume of 1 ml, 5% FCS, duplicates. Peptides were incubated with target cells for 24 h, and then the medium was collected, adherent cells were removed with trypsin–EDTA (0.5 ml, 3 min, BI: 03-052-1B), 1 ml of complete medium was added to each well, and the medium was collected (final volume 2.5 ml, on ice). For the cell death assay, samples were then centrifuged (1,300 rpm, 4°C, 5 min), the medium was removed, fresh 1 ml 10% FCS was added, and then 1 µl of 1 mg/ml PI was added to each sample and incubated (15 min, on ice) with the target cells. Before analyzing the samples, samples were centrifuged (1,300 rpm, 4°C, 5 min), the medium was removed, and fresh 0.2 ml FCAS buffer (PBS 1×, 20% FCS, 0.5% NaN3) was added. Samples were then read and analyzed using BD FACSCanto™ II and FlowJo®. APIM peptide and camptothecin (CPT) were used as positive controls ([38], [54]–[56]). Specific cell death was calculated as following: Y = 100*((sample cell death − basal cell death)/(100 − basal cell death)). Basal cell death = % of PI positive cells following incubation in complete culture media.

4T1 cells = assay: Flow cytometry based cell death assay (PI), 4T1; set-up: species or system murine; conditions: 4T1, PI flow cytometry, 0–8 µM, 24 h
Method: as §1

B16 cells = assay: Flow cytometry based cell death assay (PI), B16; set-up: species or system murine; conditions: 0–8 µM, 24 h
Method: as §1

[1] = tested on: A549 lung carcinoma cells; assay: PrestoBlue cell viability, A549; type: cell-based, human; conditions: 24 h, peptides 0–8 µM, selenite 25 µM
Method: (§2) Target cells (2.5 × 10^4 cells/well of a 48-well plate, Corning) were seeded and incubated in 37°C, 5% CO2 for 24 h in 0.5 ml of fresh complete DMEM (10% FBS) culture medium. According to molecular weight peptides were diluted from 8 to 2 µM with 5% FBS containing DMEM culture medium just before the incubation with the target cells. Medium was removed from each well, and 250 µl of diluted peptides was added and incubated for another 24 h at 37°C, 5% CO2. PrestoBlue (A13261, Invitrogen™) solution was prepared by diluting the dye 10-fold with complete DMEM. Medium was discarded from each well, and 250 µl of PrestoBlue solution was added to each well, shake gently and incubated at 37°C for another 1 h. Emission at 560 nm was measured in Premium Quad4 Monochromators plate reader (Tecan). Normalization was done relative to the appropriate control (DMEM or DMSO) to calculate the percentage of viable cells in each group. Selenite (25 µM) was used as a positive control ([52], [53]).

[2] = tested on: 4T1 mammary carcinoma cells; assay: PrestoBlue cell viability, 4T1; type: cell-based, murine; conditions: 4T1, PrestoBlue, 24 h; peptides 0–8 µM; selenite 25 µM
Method: as §2

[3] = tested on: pep8–PCNA interaction (recombinant PCNA); assay: ELISA-based inhibition of biotin-pep8 binding to PCNA; set-up: species or system human; conditions: inhibitor 25 µg/ml 1 h, then biotin-pep8 5 µg/ml 1 h, room temperature, O.D. 650 nm
Method: To determine the ability of APIM-based peptide to suppress NKp44-pep8 interaction with PCNA, ELISA plates were coated with recombinant PCNA followed by PBS–skim milk added as described earlier. Plates were then incubated with 25 µg/ml of R11-NLS-pep8 (positive control), R11-NLS-pep8short (negative control), and APIM for 1 h at room temperature followed by addition of biotin-pep8 (5 µg/ml) without washing for 1 h at room temperature. Biotin-pep8 binding to PCNA was detected using streptavidin conjugated HRP (1 h at 1:500 dilution 100 μl/well). Following washing, TMB (100 μl/well DAKO, S1599) was added. O.D. was read at 650 nm (Thermo Electron Corporation Multiskan Spectrum).

B16 melanoma cells = assay: PrestoBlue cell viability, B16; type: cell-based, murine; conditions: 24 h
Method: as §2

[4] = tested on: HepG2 hepatocellular carcinoma cells; assay: PrestoBlue cell viability, HepG2; type: cell-based, human; conditions: 24 h
Method: as §2

[5] = tested on: MDA-MB-231 breast adenocarcinoma cells; assay: PrestoBlue cell viability, MDA-MB-231; type: cell-based, human; conditions: MDA-MB-231, PrestoBlue, 24 h
Method: as §2

[6] = tested on: PANC-1 pancreas ductal adenocarcinoma cells; assay: PrestoBlue cell viability, PANC-1; type: cell-based, human; conditions: PANC-1, PrestoBlue, 24 h
Method: as §2

[7] = tested on: recombinant human PCNA (hPCNA); assay: ELISA binding of biotinylated NKp44-derived peptides to plate-bound recombinant PCNA; conditions: biotinylated peptide, 0–7.24 µM (Figure 1A), streptavidin-HRP, TMB, O.D. 650 nm
Method: The pET-28 or pMAL-c2x vectors were used to produce soluble human PCNA (hPCNA) in Rosetta™ 2 (DE3) cells. Plasmids containing the mRNA sequence of PCNA or TL1A, APO-E3, HNF4 were transformed into Rosetta™ 2 cells via heat shock and grown on LB agar plates with kanamycin and chloramphenicol. A fresh colony of transformed bacteria was grown overnight in a 5 ml of LB with kanamycin and chloramphenicol an incubator shaker set to 37°C and at 250 rpm. The next day, bacteria cells were diluted 1:100 into a 500 ml of LB with kanamycin and chloramphenicol (to discard dead cells) and grown to an optical density (O.D.) of 0.6–0.8 (λ = 650 nm). Isopropyl β-D-1-thiogalactopyranoside (0.5 mM) was added for the induction of the PCNA production, and cells were further incubated for 4 h at 26°C (hPCNA). Cells were then centrifuged and the pellet was resuspended with solution A (20 mM Tris–HCl pH 8.0, 0.5 M NaCl, 20 mM imidazole), sonicated six times (20 s with 40 s intervals) and sieved through […] (Sartorius Stedim Biotech) filter before loaded on a His-tag or Amylose resin beads. Purification of His-tagged proteins was done using a Gravity-flow Column with “HisPur™ Ni-NTA Resin” Bead kit (Thermo-Scientific) (binding capacity ≤ 60 mg of a 28 kDa 6xHis-tagged protein from a bacterial source per milliliter of settled resin) according to Kits Protocol. Purification of MBP-tagged proteins was done using the Amylose resin beads (Catalog # E8035S).
To determine the interaction between NKp44-derived peptides and PCNA, ELISA plates were coated overnight at 4°C with 2 µg/ml of the recombinant PCNA or TLA1 ([49]), APO-E3 ([50]), HNF4 ([4]), rhFc, rhNKp44-hFc ([12]), rhNKp46-hFc ([51]), and PBS 1× (negative controls). Blocking buffer (PBS + 2.5% skim milk) was applied for 2 h at room temperature, after that the plates were incubated with 0–8 µM of biotinylated NKp44-derived peptides or PBS 1× (background control) for 2 h at room temperature. NKp44-derived peptides binding to PCNA was detected using horseradish peroxidase (HRP)-conjugated to streptavidin (1 h at 1:500 dilution). Following washing, TMB (DAKO, S1599) was added. O.D. was read at 650 nm (Thermo Electron Corporation Multiskan Spectrum). Between each step, wells were washed three times with PBS containing 0.05% Tween 20 (PBST).

[8] = biological target: T1, recombinant human PCNA (proliferating cell nuclear antigen) (human, UniProt P12004 1-261); assay: ELISA; plates coated overnight at 4°C with 2 µg/ml recombinant protein; blocked with PBS + 2.5% skim milk; 0-8 µM biotinylated NKp44-derived peptides, 2 h at room temperature; streptavidin-HRP; conditions: both partners purified
T1 construct: proliferating cell nuclear antigen, human; PCNA coated on ELISA plates; also called hPCNA; recombinant PCNA; source: E. coli Rosetta 2 (DE3), purified (Ni-NTA or amylose resin); not shown: His tag or MBP (from the vectors pET-28 or pMAL-c2x)
T1 sequence (P12004 whole entry): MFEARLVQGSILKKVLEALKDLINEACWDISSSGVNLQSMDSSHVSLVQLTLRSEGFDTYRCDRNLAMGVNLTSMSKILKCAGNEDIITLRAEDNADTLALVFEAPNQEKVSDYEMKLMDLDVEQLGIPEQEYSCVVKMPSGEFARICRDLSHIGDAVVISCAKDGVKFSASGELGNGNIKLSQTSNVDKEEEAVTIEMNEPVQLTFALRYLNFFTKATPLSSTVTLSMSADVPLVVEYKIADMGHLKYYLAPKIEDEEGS

[9] = biological target: T2, MBP-fused recombinant human PCNA (human, UniProt P12004 1-261); assay: SPR; ProteOn XPR36, GLC chip; peptides immobilised by EDC/S-NHS amine coupling; MBP-PCNA 0-250 nM as analyte at 25 µl/min; equilibrium analysis model; conditions: both partners purified
T2 construct: proliferating cell nuclear antigen, human; vector pMAL-c2x; Analyte of the SPR experiments; also called MBP-PCNA; hPCNA; source: E. coli Rosetta 2 (DE3), purified (amylose resin)
T2 sequence (P12004 whole entry, the tested form may be a part): as the sequence (P12004 whole entry) above

Molecule: CC[C@@]1(O)C(=O)OCc2c1cc1n(c2=O)Cc2cc3ccccc3nc2-1 [CPT, camptothecin, reference compound]
induction of cell death, in words (MDA-MB-231 cells): lower, but stable levels of cell death | induction of cell death, in words (4T1 cells): lower, but stable levels of cell death | induction of cell death, in words (B16 cells): lower, but stable levels of cell death

Molecule: O=[Se](O)O [Selenite, reference compound]
effect on cell viability, in words [1]: significantly reduced cell viability | effect on cell viability, in words [2]: significantly reduced cell viability

inhibition of pep8 binding to PCNA [3]: 7%
Molecule: MDRWLVK-W-KKKRK-I-RRRRRRRRRRR [APIM, published PCNA-targeting peptide used as positive control, reference compound]
induction of cell death, in words (MDA-MB-231 cells): strong induction of cell death | induction of cell death, in words (4T1 cells): strong induction of cell death | induction of cell death, in words (B16 cells): strong induction of cell death

inhibition of pep8 binding to PCNA [3]: 10%
Molecule: RRRRRRRRRRR-I-KKKRK-W-VTSSKPRTVA [R11-NLS-pep8short, R11-NLS fused to pep8short, negative control]
effect on cell viability, in words [1]: did not show any effect on tumor cell viability | effect on cell viability, in words (B16 melanoma cells): none to dull effect | induction of cell death, in words (MDA-MB-231 cells): did not induce any cell death | effect on cell viability, in words [2]: did not affect 4T1 cell viability | effect on cell viability, in words [4]: none to dull effect | induction of cell death, in words (4T1 cells): did not induce any cell death | effect on cell viability, in words [5]: none to dull effect | induction of cell death, in words (B16 cells): did not induce any cell death | effect on cell viability, in words [6]: none to dull effect

binding to recombinant hPCNA [7]: does not bind PCNA | binding to recombinant hPCNA ([7]; listed as 10-mer shared core sequence of pep8 and pep10): did not bind PCNA
Molecule: VTSSKPRTVA [pep8short, short form of pep8]

binding to recombinant hPCNA [7]: negative binding
Molecule: YPPTGSLYEKKGWCKEASAL [pep5, NKp44-derived peptide used as negative control]

binding result [8]: binds
B1: biotinylated NKp44-derived peptide #8 (peptide)
peptide: Biotin-EASALVCIRLVTSSKPRTVA
notes: NKp44 (NCR2), amino acids 57-76, with the natural SNP variant (rs9471577) valine at 75; also called pep8; NKp44-pep8; source: synthetic peptide (PEP screen, Sigma-Aldrich; selected peptides from GL Biochem)

binding result [8]: binds
B2: biotinylated NKp44-derived peptide #10 (peptide)
peptide: Biotin-VTSSKPRTVAWTSRFTIWAA
notes: NKp44 (NCR2), amino acids 67-86, with valine at 75 (SNP rs9471577); also called pep10; NKp44-pep10; source: synthetic peptide (PEP screen, Sigma-Aldrich; selected peptides from GL Biochem)

Kd [9]: 490 nM
B3: NKp44-derived pep8 (immobilised for SPR) (peptide)
peptide: EASALVCIRLVTSSKPRTVA
notes: NKp44 (NCR2), amino acids 57-76, with the natural SNP variant (rs9471577) valine at 75; also called NKp44-pep8; source: synthetic peptide

Kd [9]: 87 nM
B4: R11-NLS-pep8 (peptide)
peptide: RRRRRRRRRRRIKKKRKWEASALVCIRLVTSSKPRTVA
modifications: not fully specified (residue 38, N-terminus); printed as RRRRRRRRRRR-I-KKKRK-W-EASALVCIRLVTSSKPRTVA
notes: cell-penetrating moiety: R11, I, NLS stretch KKKRK, W; NKp44 (NCR2), amino acids 57-76 (pep8), with valine at 75 (SNP rs9471577); also called CPP-pep8; source: synthetic peptide (GL Biochem, purity > 95%)
